Laboratory results from PMC4728661, “Cancer Prevention and Health Benefices of Traditionally Consumed Borago officinalis Plants” (Nutrients, 2016).
Where “and” joins values, the source holds several entries; their conditions need not be identical. Identical values can stand only once. Marks after values point to notes of the source that are not given here.

Columns and labels:
D. melanogaster [1] = test: Antigenotoxicity: SMART, combined treatments with H2O2 0.12 M; format: in vivo, Drosophila melanogaster; for Diagnosis, Large Single Spots >2 Cells m = 5: key: + (positive); − (negative); for Diagnosis, Small Single Spots 1–2 Cells m = 2: key: + (positive); − (negative); for Diagnosis, Total Spots m = 2: key: + (positive); − (negative); for Diagnosis, Twin Spots m = 5: key: + (positive); − (negative)
Method: The D. melanogaster system was selected for the determination of the safety of B. officinalis consumption as a well-recognized method to analyze vegetable complex mixtures using SMART [31, 32]. This test was used in order to evaluate the genotoxic and antigenotoxic activity of B. officinalis leaves and petioles as well as their selected bioactive compounds [33]. This activity was measured by direct visualization of the occurrence of recessive mutations in the wing hairs of two different D. melanogaster strains. Flies from experiments carried these visible wing genetic markers: the flare (flr) strain […]) TM3, Bd^s and the multiple wing-hair (mwh) strain […] [35]. The marker flare (flr^3, 3_38.3) produces individual malformed hairs and the marker multiple wing hairs (mwh, 3_0.3) produces multiple hairs per cell. Larvae used in treatments come from two types of crosses: the standard cross with flr^3/TM3, Bd^S females mated to […] and the reciprocal cross. Optimal fertile flies were anesthetized under CO2 narcotisation for cross selection and then placed in new vials for fertilization. After that, hybrid eggs from crossing were collected over an 8 h period and emerged larvae (72 ± 4 h later) were cleaned up for a few seconds in sterile distilled water to remove feeding medium rests. […] Bioactive compound concentrations were chosen on the basis of their known content in B. officinalis species. […] Larvae were fed on these media until pupation (about 48 h). After emergence, resulting adult flies were sacrificed under CO2 narcotisation and stored in a 70% ethanol solution in sterile water. […] For the evaluation of genotoxic effects, the frequencies of spots per fly of each treated series were compared to the concurrent negative control for each class of mutational clone as well as between simple and combined treatments for the same concentration comparisons. […] A multiple-decision procedure was used to categorize results as positive, inconclusive or negative. Inconclusive and positive results were evaluated by the non-parametric U test of Mann, Whitney and Wilcoxon. The inhibition percentage (IP) of genotoxicity was calculated from the total frequencies of spots per wing, following this formula [42]: IP = (genotoxin alone - sample + genotoxin) × 100/(genotoxin alone)(2) Significant differences of IP for each treatment respect to the positive control were analyzed with a Chi-square test.

D. melanogaster [2] = test: Toxicity: survival of Drosophila larvae to emerged adults, simple and combined (H2O2) treatments; format: in vivo, Drosophila melanogaster
Method: Optimal fertile flies were anesthetized under CO2 narcotisation for cross selection and then placed in new vials for fertilization. After that, hybrid eggs from crossing were collected over an 8 h period and emerged larvae (72 ± 4 h later) were cleaned up for a few seconds in sterile distilled water to remove feeding medium rests. […] Bioactive compound concentrations were chosen on the basis of their known content in B. officinalis species. […] Larvae were fed on these media until pupation (about 48 h). After emergence, resulting adult flies were sacrificed under CO2 narcotisation and stored in a 70% ethanol solution in sterile water. […] The determination of Toxicity (T) of treatments in D. melanogaster was performed following this formula [39]: T = (N° of emerging individuals in treatment/N° of emerging individuals in the negative control) × 100(1) Differences in D. melanogaster survival between treatments at each concentration with respect to negative control were analyzed with a Chi-square test. This procedure was also performed for the analysis of each simple treatment with their correspondent combined treatment.

HL-60 cells = test: Cytotoxicity: HL-60 growth/viability, Trypan Blue dye exclusion; format: cell-based, human; details: 72 h
Method: The human acute promyelocytic leukemia cell line HL-60 was routinely grown in suspension in RPMI medium (Invitrogen, Madrid, Spain) containing glutamine ([…], Sigma-Aldrich, St. Louis, MO, USA), antibiotics (100IU penicillin mL^−1 and 100 μg streptomycin mL^−1, Sigma-Aldrich) and supplemented with 10% heat-inactivated foetal bovine serum (Linus, Cultek, Madrid, Spain) and placed in an incubator (Shel Lab, Cornelious, OR, USA) with a 5% CO2 humidified atmosphere at 37 °C [36]. HL-60 cells were subcultured every 2–3 days to maintain logarithmic growth and they were allowed to grow for 48 h before use. Cultures were plated at a density of 12.5 × 10^4 cells mL^−1 in 40 mL culture flasks (25 cm^2). Cytotoxic activity was measured as growing inhibition or decreased viability on HL-60 cells following a previous protocol modified by us. […] Cells were counted after 72 h treatment. Tested concentrations were calculated according to those used for in vivo assays to equal the range of tested doses. Untreated cultures were used as negative control. Cell viability was determined by the Trypan Blue dye exclusion test. Cells were stained with an equal volume of Trypan Blue commercial solution (Sigma-Aldrich) and counted using a hemocytometer at room temperature under a light inverted microscope (AE30/31, Motic, Barcelona, Spain). Cytotoxic effect evaluation was determined after each culture incubation period, establishing a growth curve and determining IC50 values by regression analysis of the curves. Viability estimated regressions of leukemia cells are presented as a survival percentage with respect to controls at 72 h growth and plotted as mean viability ± standard error of at least three independent replicas for each treatment and concentration.

[3] = combined with 0.12 M H2O2, 0.35 mM RO
[4] = combined with 0.12 M H2O2, 0.7 mM RO
[5] = combined with 0.12 M H2O2, 1.39 mM RO
[6] = combined with 0.12 M H2O2, 2.78 mM RO
[7] = combined with 0.12 M H2O2, 0.15 mM SI
[8] = combined with 0.12 M H2O2, 0.29 mM SI
[9] = combined with 0.12 M H2O2, 0.58 mM SI
[10] = combined with 0.12 M H2O2, 1.16 mM SI

## O=C(/C=C/c1ccc(O)c(O)c1)O[C@H](Cc1ccc(O)c(O)c1)C(=O)O [RO, rosmarinic acid]
D. melanogaster [1]; [3]
  Diagnosis, Small Single Spots 1–2 Cells m = 2: −
  Diagnosis, Total Spots m = 2: −
  Mutation rate, Large Single Spots >2 Cells m = 5: 0 spots/wing
  Mutation rate, Small Single Spots 1–2 Cells m = 2: 0.17 (5) spots/wing
  Mutation rate, Total Spots m = 2: 0.17 (5) spots/wing
  Mutation rate, Twin Spots m = 5: 0 spots/wing
D. melanogaster [1]; [4]
  Diagnosis, Large Single Spots >2 Cells m = 5: −
  Diagnosis, Small Single Spots 1–2 Cells m = 2: −
  Diagnosis, Total Spots m = 2: −
  Diagnosis, Twin Spots m = 5: −
  Mutation rate, Large Single Spots >2 Cells m = 5: 0.08 (3) spots/wing
  Mutation rate, Small Single Spots 1–2 Cells m = 2: 0.35 (14) spots/wing
  Mutation rate, Total Spots m = 2: 0.45 (18) spots/wing
  Mutation rate, Twin Spots m = 5: 0.03 (1) spots/wing
D. melanogaster [1]; [5]
  Diagnosis, Large Single Spots >2 Cells m = 5: −
  Diagnosis, Small Single Spots 1–2 Cells m = 2: −
  Diagnosis, Total Spots m = 2: −
  Mutation rate, Large Single Spots >2 Cells m = 5: 0.14 (3) spots/wing
  Mutation rate, Small Single Spots 1–2 Cells m = 2: 0.14 (3) spots/wing
  Mutation rate, Total Spots m = 2: 0.27 (6) spots/wing
  Mutation rate, Twin Spots m = 5: 0 spots/wing
D. melanogaster [1]; [6]
  Diagnosis, Small Single Spots 1–2 Cells m = 2: −
  Diagnosis, Total Spots m = 2: −
  Diagnosis, Twin Spots m = 5: −
  Mutation rate, Large Single Spots >2 Cells m = 5: 0 spots/wing
  Mutation rate, Small Single Spots 1–2 Cells m = 2: 0.21 (11) spots/wing
  Mutation rate, Total Spots m = 2: 0.25 (13) spots/wing
  Mutation rate, Twin Spots m = 5: 0.04 (2) spots/wing
D. melanogaster [2]; average of the four concentrations, combined with 0.12 M H2O2
  Survival average in combined treatments: 41.28
D. melanogaster [2]; [3]
  Survival: 49.56 * %
D. melanogaster [2]; [4]
  Survival: 31.11 *^,‡ %
D. melanogaster [2]; [5]
  Survival: 45.56 *^,‡ %
D. melanogaster [2]; [6]
  Survival: 38.89 *^,‡ %
D. melanogaster [2]; simple treatment, 0.35 mM RO
  Survival: 48.44 * %
D. melanogaster [2]; simple treatment, 0.7 mM RO
  Survival: 22.22 * %
D. melanogaster [2]; simple treatment, 1.39 mM RO
  Survival: 33.33 * %
D. melanogaster [2]; simple treatment, 2.78 mM RO
  Survival: 21.33% and 21.33 * %
HL-60 cells; RO (alone or in the mixture) at concentrations over 0.55 mM
  Viable HL-60 cells: no viable cells could be detected

## COc1cc(/C=C/C(=O)O)cc(OC)c1O [SI, sinapic acid]
D. melanogaster [1]; [7]
  Diagnosis, Small Single Spots 1–2 Cells m = 2: −
  Diagnosis, Total Spots m = 2: −
  Mutation rate, Large Single Spots >2 Cells m = 5: 0 spots/wing
  Mutation rate, Small Single Spots 1–2 Cells m = 2: 0.42 (5) spots/wing
  Mutation rate, Total Spots m = 2: 0.42 (5) spots/wing
  Mutation rate, Twin Spots m = 5: 0 spots/wing
D. melanogaster [1]; [8]
  Diagnosis, Small Single Spots 1–2 Cells m = 2: −
  Diagnosis, Total Spots m = 2: −
  Mutation rate, Large Single Spots >2 Cells m = 5: 0 spots/wing
  Mutation rate, Small Single Spots 1–2 Cells m = 2: 0.25 (2) spots/wing
  Mutation rate, Total Spots m = 2: 0.25 (2) spots/wing
  Mutation rate, Twin Spots m = 5: 0 spots/wing
D. melanogaster [1]; [9]
  Diagnosis, Large Single Spots >2 Cells m = 5: −
  Diagnosis, Small Single Spots 1–2 Cells m = 2: −
  Diagnosis, Total Spots m = 2: −
  Diagnosis, Twin Spots m = 5: −
  Mutation rate, Large Single Spots >2 Cells m = 5: 0.09 (2) spots/wing
  Mutation rate, Small Single Spots 1–2 Cells m = 2: 0.27 (6) spots/wing
  Mutation rate, Total Spots m = 2: 0.41 (9) spots/wing
  Mutation rate, Twin Spots m = 5: 0.05 (1) spots/wing
D. melanogaster [1]; [10]
  Diagnosis, Large Single Spots >2 Cells m = 5: −
  Diagnosis, Small Single Spots 1–2 Cells m = 2: −
  Diagnosis, Total Spots m = 2: −
  Mutation rate, Large Single Spots >2 Cells m = 5: 0.04 (1) spots/wing
  Mutation rate, Small Single Spots 1–2 Cells m = 2: 0.25 (7) spots/wing
  Mutation rate, Total Spots m = 2: 0.29 (8) spots/wing
  Mutation rate, Twin Spots m = 5: 0 spots/wing
D. melanogaster [2]; [7]
  Survival: 64 *^,‡ %
D. melanogaster [2]; [8]
  Survival: 58.89 * %
D. melanogaster [2]; [9]
  Survival: 39.78 *^,‡ %
D. melanogaster [2]; [10]
  Survival: 43.56 *^,‡ %
D. melanogaster [2]; simple treatment, 0.15 mM SI
  Survival: 78.22 * %
D. melanogaster [2]; simple treatment, 0.29 mM SI
  Survival: 60.22 * %
D. melanogaster [2]; simple treatment, 0.58 mM SI
  Survival: 69.33 * %
D. melanogaster [2]; simple treatment, 1.16 mM SI
  Survival: 55.11 * %
HL-60 cells; 0.03–1 mM
  Effect on HL-60 growth: did not affect HL-60 growth
